Results taken from ChEMBL document CHEMBL6092191, “Advancing Cancer Immunotherapy through Engineering New PD-L1 Degraders: A Comprehensive Study from Small Molecules to PD-L1-Specific Peptide-Drug Conjugates” (J Med Chem, 2024).
Active and inactive are the calls of the source. No cut-off for these calls is given here.

What was measured:
[1] = Drug uptake in human PC-9 cells at 10 uM by fluorescence microscopy; format: ADME, cell-based; conditions: pc-9, 10 µM
[2] = molecular target: COP9 signalosome complex subunit 5 (Homo sapiens) (UniProt Q92905); experiment: Induction of IFN-gamma-induced PD-L1 degradation in human A549 cells at 10 uM incubated for 24 hrs by Western blot analysis; format: cell-based
Sequence of COP9 signalosome complex subunit 5 (Homo sapiens) (Q92905 2-334 limits assumed, one chain of several): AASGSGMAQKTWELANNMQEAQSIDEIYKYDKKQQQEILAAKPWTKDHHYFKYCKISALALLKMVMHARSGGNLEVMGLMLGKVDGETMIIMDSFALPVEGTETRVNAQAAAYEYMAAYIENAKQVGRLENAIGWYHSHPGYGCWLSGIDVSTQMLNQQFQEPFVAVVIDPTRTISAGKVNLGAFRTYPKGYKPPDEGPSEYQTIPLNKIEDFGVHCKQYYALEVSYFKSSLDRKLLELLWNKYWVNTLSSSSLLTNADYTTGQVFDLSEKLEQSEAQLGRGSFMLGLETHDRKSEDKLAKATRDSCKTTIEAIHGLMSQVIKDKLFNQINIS

[3] = molecular target: COP9 signalosome complex subunit 5 (Homo sapiens) (UniProt Q92905); experiment: Induction of IFN-gamma-induced PD-L1 degradation in human NCI-H1299 cells at 10 uM incubated for 24 hrs by Western blot analysis; format: cell-based
[4] = molecular target: COP9 signalosome complex subunit 5 (Homo sapiens) (UniProt Q92905); experiment: Induction of PD-L1 degradation in human PC-9 cells assessed as reduction in green signal at 10 uM incubated for 24 hrs by immunofluorescence staining based analysis; format: cell-based
NCI-H460 = experiment: Antiproliferative activity against human NCI-H460 cells at 10 uM measured after 4 days by MTT assay; format: functional, cell-based; conditions: time 4.0 day
[5] = tested on: Lewis lung carcinoma cell line; experiment: Antiproliferative activity against Lewis lung carcinoma cells at 10 uM measured after 4 days by MTT assay; format: functional, cell-based; conditions: Mus musculus, time 4.0 day
Mus musculus = experiment: In vivo induction of PD-L1 degradation in […] lung carcinoma cells xenografted in C57BL/6 mouse model at 10 mg/kg, ip administered daily for 10 days by IHC analysis; format: functional, organism-based; conditions: time 10.0 day
[6] = tested on: Lewis lung carcinoma cell line; experiment: Anticancer activity against Lewis lung carcinoma cells xenografted in C57BL/6 mouse model assessed as decrease in Ki-67 level at 10 mg/kg, ip administered daily for 10 days by IHC analysis; format: functional, organism-based; conditions: time 10.0 day
[7] = tested on: Lewis lung carcinoma cell line; experiment: Antitumor T-cell immune response in Lewis lung carcinoma cells xenografted in C57BL/6 mouse model assessed as decrease in CD3+ CD4+ population in CD45+ T cells in tumor at 10 mg/kg, ip administered daily for 10 days by flow cytometry; format: functional, organism-based; conditions: time 10.0 day
[8] = tested on: Lewis lung carcinoma cell line; experiment: Antitumor T-cell immune response in Lewis lung carcinoma cells xenografted in C57BL/6 mouse model assessed as increase in CD3+ CD8+ infiltration in CD45+ T cells in tumor at 10 mg/kg, ip administered daily for 10 days by flow cytometry; format: functional, organism-based; conditions: time 10.0 day
[9] = tested on: Lewis lung carcinoma cell line; experiment: Antitumor T-cell immune response in Lewis lung carcinoma cells xenografted in C57BL/6 mouse model assessed as increase in IFN-gamma level in tumor at 10 mg/kg, ip administered daily for 10 days by ELISA; format: functional, organism-based; conditions: time 10.0 day
[10] = Toxicity in C57BL/6 mouse model xenografted with […] cells assessed as obvious damage in lung at 10 mg/kg, ip administered daily for 10 days by H and E staining based analysis; format: organism-based; conditions: in vivo, 240 h, time 10 day
[11] = Toxicity in C57BL/6 mouse model xenografted with […] cells assessed as obvious damage in kidney at 10 mg/kg, ip administered daily for 10 days by H and E staining based analysis; format: organism-based; conditions: in vivo, 240 h, time 10 day
HCC827 = experiment: Effect on IFN-gamma-induced PD-L1 mRNA expression in human HCC827 cells at 10 uM by qRT-PCR analysis; format: functional, cell-based
[12] = molecular target: COP9 signalosome complex subunit 5 (Homo sapiens) (UniProt Q92905); experiment: Induction of PD-L1 degradation in human NCI-H460 cells upto 40 uM in presence of chloroquine by Western blot analysis; format: cell-based
[13] = molecular target: COP9 signalosome complex subunit 5 (Homo sapiens) (UniProt Q92905); experiment: Binding affinity to CSN5 in NCI-H460 cell lysate by Western blot analysis; format: subcellular
[14] = Antiproliferative activity against human HTori-3 cells at 10 uM incubated for 4 days; format: toxicity, cell-based; conditions: htori-3, 96 h, time 4 day

- Drug uptake [1]: Time-dependent-effect
- Activity [2]: Active
- Activity [3]: Active
- Activity [4]: Active
- Activity [12]: Active
- Activity [13]: Active
SMILES: COc1cc2c(cc1OC)-c1cc3ccc(OC)c(OCCN)c3c[n+]1CC2.[Cl-]
- Activity (NCI-H460): inactive
- Activity [5]: inactive
- Activity (Mus musculus): Active
- Activity [6]: Active
- Activity [7]: Active
- Activity [8]: Active
- Activity [9]: Active
- Activity [10]: Non-toxic
- Activity [11]: Non-toxic
- Activity (HCC827): inactive
- Activity [14]: Non-toxic
